In paper PMC4077824, “Conserved Prosegment Residues Stabilize a Late-Stage Folding Transition State of Pepsin Independently of Ground States” (PLoS ONE, 2014):
Several values for one entry are separate records, joined by “and”; a condition that tells them apart may be missing. Equal entries are not always repeated. Where no end group is shown, it is not given here.

Assays:
[1] = test system: pepsin (PS-Rp, PS-TS, PS-Np complexes); experiment: Φ-value analysis from PS-catalyzed folding and binding constants; design: species or system porcine; details: for Φ: ratio ΔΔG^‡/ΔΔGPS(Np-Rp); for Φ / ΔΔGPS(Np-Rp) (change in equilibrium stability of PS-Np relative to PS-Rp): ± SD by propagation of errors; for ΔΔGPS(Np-Rp) (change in equilibrium stability of PS-Np relative to PS-Rp): ΔΔGPS-Np minus ΔΔGPS-Rp; for effect on PS-TS stability (in words): ΔΔGPS-TS = ΔΔG^‡ + ΔΔGPS-Rp
Experimental: Calculation of Φ-values from PS-catalyzed folding and binding constants
The change in stability of the folding transition state upon mutation was calculated using [drawing 3] (3) where k f, wt and k f, mut are the PS-catalyzed folding rate constants of the wild-type and mutant PS peptides. The change in equilibrium stability of PS-Np relative to PS-Rp upon mutation of the PS (ΔΔGPS(Np-Rp)) was determined as the difference between the changes in binding energies, using [drawing 4] (4) and [drawing 5] (5)
Here, ΔΔGbind refers to either ΔΔGPS-Rp, determined from K d values, or ΔΔGPS-Np, determined from K i values. The Φ-value for each mutant corresponds to eq 3 divided by eq 5. Additional details are included in the supporting information section (Text S1).
As outlined below, ∆Gbind values are used to calculate ∆∆GPS(Np-Rp), which is the change in the equilibrium free energy difference between PS-Np and PS-Rp upon mutation of the PS (for a diagram of the folding reaction, see Fig S1)
ΔΔGbind can refer to either ∆∆G^PS-Np(wt-mut) or ∆∆G^PS-Rp(wt-mut). Also, we can write ∆Gbind in terms of its components
where ∆GPS, ∆Gpepsin and ∆Gsolvent refer to the change in free energy of the PS, pepsin and the solvent upon PS binding to pepsin, respectively. Combining equations S1 and S2 gives
The contribution of each component to ∆∆Gbind will depend on the particular mutation (e.g., nature of substitution, location within folded structure, solvent accessibility). This is the general case for protein engineering analysis, in which the effects of mutations on changes in equilibrium and activation energies are the result of many individual interaction energy terms, including solvent terms, as previously explained in detail [Fersht AR, Matouschek A, Serrano L (1992) The folding of an enzyme I. Theory of protein engineering analysis of stability and pathway of protein folding. J Mol Biol 224: 771‒782]. Most importantly, there is no requirement to separate ΔΔGbind into its components in order to proceed with analysis as we are interested in the overall change in equilibrium stability of the PS-pepsin complex (∆∆GPS(Np-Rp))
This bimolecular approach to Φ-value analysis of protein folding is qualitatively identical to Φ-value analysis as it was originally applied to the study of enzyme catalysis. As outlined previously [Fersht AR], changes in the free energy of enzyme (E) binding to substrate (S) or product (P) are used to determine the change in free energy difference between E-P and E-S upon mutation, ∆∆G^EP-ES(wt-mut), where
As these are at the scale of global energy terms, equations S4 and S5 are equivalent and PS-catalyzed folding can be treated similarly as enzyme catalysis, in which the PS is the foldase and the denatured and natively folded protein are the substrate and product, respectively. However, protein folding reactions are more complicated to interpret at the level of individual interaction energy terms, which are more numerous [Fersht AR].
Changes in the binding energies between PS-Rp and PS-Np upon PS mutation can then be used to determine Φ-values with the following considerations:
1. Free PS is unstructured (see Fig S6), so Ala mutations are expected to have a negligible effect on the stability and conformation of free PS.
2. Changes in binding and folding upon mutation can be localized to the loss of interactions in the immediate vicinity of the truncation mutation (i.e., larger residue mutated to Ala), and not due to gross conformational changes of the PS or changes in the binding/folding mechanism (consider as strong evidence that all of the mutant PS’s readily catalyze folding to the native, active form).
3. Changes in PS-Rp and PS-Np binding energies upon mutation (∆∆G^PS-Np(wt-mut) and ∆∆G^PS-Rp(wt-mut)) are measured directly, while the change in the PS-TS binding energy (∆∆G^PS-TS(wt-mut)) is the sum of ∆∆G^PS-Rp(wt-mut) and ∆∆G^‡(wt-mut).
4. Φ-values are calculated using […]

native pepsin (Np) = biological target: T1, native pepsin (Np) (Sus scrofa, UniProt P00791); details: ref [7]; cited from earlier work
T1 construct: Only the R13 and K36 side-chains of the PS form hydrogen bonds with the mature pepsin domain; purchased Sigma (St. Louis, MO, USA)
From the text: (§1) Figure 1 Zymogen-derived proteins deviate from common trends in protein folding. (A) Comparison of the non- and PS-catalyzed folding of αLP [8], SGPB [5] and pepsin [7]. (B) Relation between topology and folding rate for a number of two- and three-state folding proteins (circles, data taken from, [21], [22]). The folding rate of αLP (squares), SGPB (triangles) and pepsin (stars) is accelerated to the value (hollow points) expected based on the topology, only when the PS is included. (C) Reaction scheme of pepsin PS-catalyzed folding. […] It seems likely that the PS has achieved this higher affinity for the TS via a concerted optimization of side-chain packing, hydrogen bonding and electrostatics, as evidenced by polar, hydrophobic and charged groups selectively stabilizing the TS ( Fig 3A ). Furthermore, this concerted optimization likely involves both non-native and strengthened native contacts, given the range of interactions involved. In the native fold [ ...

refolded pepsin (Rp) [2] = biological target: T2, refolded pepsin (Rp) (Sus scrofa, UniProt P00791); details: ref [7]; cited from earlier work
T2 construct: Only the R13 and K36 side-chains of the PS form hydrogen bonds with the mature pepsin domain; purchased Sigma (St. Louis, MO, USA)
From the text: as §1

refolded pepsin (Rp) [3] = biological target: T2, refolded pepsin (Rp); experiment: PS-catalyzed folding of Rp to Np (recovery of Np activity); type: biochemical, porcine; details: PS with Rp, without 100 mM NaCl, timescale of 0–2 hours; data not shown, and [7]
[4] = CD spectroscopy of prosegment; type: physicochemical; details: PSwt 0.1 mg/ml, pure water or 20 mM acetic acid/NaOH pH 5.3 with and without 100 mM NaCl
Experimental: CD data were collected using a Jasco J-810 spectropolarimeter (Jasco corp., Tokyo, Japan), over a wavelength range of 250 nm to 190 nm with a 1 nm resolution, 100 nm/min scan rate, 0.25 s response time and four-fold accumulation of scans. PSwt was diluted to 0.1 mg/ml in either pure water or 20 mM acetic acid/NaOH buffer at pH 5.3, with and without 100 mM NaCl, and loaded into a cell with a 0.1 cm path length. Background spectra were subtracted and the sample spectra converted to units of mean residue ellipticity, MRE, using MRE = MRW ×θ λ/(10×d×c), where MRW is the mean residue weight (molecular weight/number of residues), θ λ is the measured ellipticity at a particular wavelength (degrees), d is the pathlength (0.1 cm) and c is the protein concentration (g/cm^3).
Supplementary file pone.0101339.s006.tif: Figure S6 CD spectra of prosegment. Far-UV CD spectra of PSwt, in ddH2O and in 20 mM acetic acid/NaOH, at pH 5.3, with and without 100 mM NaCl added. […] Anal Biochem 287: 243–251]. (TIF) Click here for additional data file.

T2 sequence (P00791 60-385): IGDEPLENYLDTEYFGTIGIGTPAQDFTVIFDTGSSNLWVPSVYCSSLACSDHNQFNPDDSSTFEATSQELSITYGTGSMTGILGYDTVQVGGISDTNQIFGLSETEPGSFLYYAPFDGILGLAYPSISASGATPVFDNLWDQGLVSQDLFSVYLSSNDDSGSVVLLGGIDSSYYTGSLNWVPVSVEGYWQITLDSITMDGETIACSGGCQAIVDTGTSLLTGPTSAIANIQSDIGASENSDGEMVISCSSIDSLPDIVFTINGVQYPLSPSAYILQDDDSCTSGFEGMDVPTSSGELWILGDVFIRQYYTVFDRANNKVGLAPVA
T1 sequence (P00791 60-385): as above

Φ [1] | ΔΔGPS(Np-Rp) (change in equilibrium stability of PS-Np relative to PS-Rp) [1] [kcal/mol] | secondary structure of free PS by CD ([4]; listed as PS) | Sequence | effect on PS-TS stability (in words) [1] | affinity for Np (native pepsin (Np)) | affinity for Rp (refolded pepsin (Rp) [2]) | generation of protease activity without added NaCl (refolded pepsin (Rp) [3]) | secondary structure of free PS by CD [4]
−1.0±0.3 | -0.93 ± 0.18 |  | LVKAPLVRKKSLRQNLIKNGKLKDFLKTHKHNPASKYFPEAAAL [V4A] | destabilizing to the TS |  |  |  | 
0 and 0.0±0.1 | 1.26 ± 0.28 |  | LVKVPLVRKKSLRQNLAKNGKLKDFLKTHKHNPASKYFPEAAAL [I17A] | negligible effect on PS-Rp and PS-TS stability |  |  |  | 
 |  | unstructured on its own | LVKVPLVRKKSLRQNLIKNGKLKDFLKTHKHNPASKYFPEAAAL [WT] |  | nano- | micromolar | no generation of protease activity was observed | A negative band at 198 nm is characteristic of random coil structure
